# Reference: patent US20210029994A1, “HERBICIDE COMPOSITIONS AND METHODS OF CONTROLLING GROWTH OF PLANTS” (priority 2019, published 2021)
# Entries after “also recorded” stand apart in the source; their conditions may differ.
# What was measured:
# Type in all cases: in vivo
# [1] = tested on: Amaranthus powelli (Powell's Amaranth), Group 2,5 resistant; test: Post-emergent treatment of potted weeds with herbicide composition, 7 day growth (FIG. 1); conditions: 1% Juglone, weeds about 0-2 weeks post emergent (about 2-5 cm), 7 days after treatment
# Experimental: (§1) Referring now to the figures, pictures of various weeds are shown herein after being treated with an herbicide composition described herein. In all of the pictures provided herein, weeds that were about 0-2 weeks post emergent (e.g. about 2-5 cm in height) were treated with an herbicide composition having a 1% Juglone concentration. In most cases, plant damage was observed within two hours of treatment of the weeds with the herbicide composition.
# Specifically, FIG. 1 is a picture of three pots showing 7 day growth of Amaranthus powelli (Powell's Amaranth), Group 2,5 resistant, when left untreated, treated with 1% Juglone, and treated with a control (i.e. solvent/surfactant, no active ingredient), respectively.
# [2] = tested on: Amaranthus rudis JD Sauer (Waterhemp), Group 2,4,5,14,9,27 Resistant; test: Post-emergent treatment of potted weeds with herbicide composition, 7 day growth (FIG. 2); conditions: 1% Juglone; weeds about 0-2 weeks post emergent (about 2-5 cm); 7 days after treatment
# Experimental: as §1
# FIG. 2 is a picture of three pots showing 7 day growth of Amaranthus rudis JD Sauer (Waterhemp), Group 2,4,5,14,9,27 Resistant, when left untreated, treated with 1% Juglone, and treated with a control (i.e. solvent/surfactant, no active ingredient), respectively.
# [3] = tested on: Amaranthus rudis JD Sauer (Waterhemp), non-resistant; test: Post-emergent treatment of potted weeds with herbicide composition, 7 day growth (FIG. 3); conditions: 1% Juglone; weeds about 0-2 weeks post emergent (about 2-5 cm); 7 days after treatment
# Experimental: as §1
# FIG. 3 is a picture of three pots showing 7 day growth of Amaranthus rudis JD Sauer (Waterhemp), non-resistant, when left untreated, treated with 1% Juglone, and treated with a control (i.e. solvent/surfactant, no active ingredient), respectively.
# [4] = tested on: Chenopodium album L. (lamb's quarters), Group 2,5 Resistant; test: Post-emergent treatment of potted weeds with herbicide composition, 7 day growth (FIG. 4); conditions: 1% Juglone; weeds about 0-2 weeks post emergent (about 2-5 cm); 7 days after treatment
# Experimental: as §1
# FIG. 4 is a picture of three pots showing 7 day growth of Chenopodium album L. (lamb's quarters), Group 2,5 Resistant, when left untreated, treated with 1% Juglone, and treated with a control (i.e. solvent/surfactant, no active ingredient), respectively.
# [5] = tested on: Amaranthus retroflexus L. (pigweed), Group 2,5 Resistant; test: Post-emergent treatment of potted weeds with herbicide composition, 7 day growth (FIG. 5); conditions: 1% Juglone; weeds about 0-2 weeks post emergent (about 2-5 cm); 7 days after treatment
# Experimental: as §1
# FIG. 5 is a picture of two pots showing 7 day growth of Amaranthus retroflexus L. (pigweed), Group 2,5 Resistant, when left untreated and treated with 1% Juglone, respectively.
# [6] = tested on: Solanum ptycanthum (eastern black nightshade), Group 2 Resistant; test: Post-emergent treatment of potted weeds with herbicide composition, 7 day growth (FIG. 6); conditions: 1% Juglone; weeds about 0-2 weeks post emergent (about 2-5 cm); 7 days after treatment
# Experimental: as §1
# FIG. 6 is a picture of two pots showing 7 day growth of Solanum ptycanthum (eastern black nightshade), Group 2 Resistant, when left untreated and treated with […] Juglone, respectively.
# [7] = tested on: Amaranthus hybridus L. (smooth pigweed), Group 2,5 Resistant; test: Post-emergent treatment of potted weeds with herbicide composition, 7 day growth (FIG. 7); conditions: 1% Juglone; weeds about 0-2 weeks post emergent (about 2-5 cm); 7 days after treatment
# Experimental: as §1
# FIG. 7 is a picture of three pots showing 7 day growth of Amaranthus hybridus L. (smooth pigweed), Group 2,5 Resistant, when left untreated, treated with 1% Juglone, and treated with a control (i.e. solvent/surfactant, no active ingredient), respectively.
# weeds = test: Onset of plant damage after treatment of weeds with herbicide composition; conditions: 1% Juglone concentration; weeds about 0-2 weeks post emergent; in most cases
# Experimental: as §1
compound,measurement,setting,value
"O=C1C=CC(=O)c2c(O)cccc21 [Juglone, 5-hydroxy-1,4-naphthalenedione]",control of growth of Amaranthus powelli,[1],effectively controlled the growth
same,"control of growth of Amaranthus rudis JD Sauer (Waterhemp), Group 2,4,5,14,9,27 Resistant",[2],effectively controlled the growth; also recorded: did control the growth
same,"control of growth of Amaranthus rudis JD Sauer (Waterhemp), non-resistant",[3],did not effectively control the growth
same,"control of growth of Chenopodium album L. (lamb's quarters), Group 2,5 Resistant",[4],effectively controlled the growth
same,"control of growth of Amaranthus retroflexus L. (pigweed), Group 2,5 Resistant",[5],effectively controlled the growth
same,"control of growth of Solanum ptycanthum (eastern black nightshade), Group 2 Resistant",[6],effectively controlled the growth
same,"control of growth of Amaranthus hybridus L. (smooth pigweed), Group 2,5 Resistant",[7],effectively controlled the growth
same,time to observed plant damage after treatment,weeds,two
